In brackets after ≈: the same amount, converted by molar mass. Several values for one entry are separate records, joined by “and”; a condition that tells them apart may be missing. Equal values may be shown once. Where a name gives a salt, the structure may show the parent alone. Read-outs that look alike come from different tables or passages of the source. One block for each molecule: values may come before it.
Key:
rat = details: cited from earlier work
mouse [1] = details: cited from earlier work
dog = details: cited from earlier work
Kunming mice = assay: Effect on mouse's spontaneous activities; type: in vivo; details: positive control 2 mg/kg
Procedure: (Bibliography: 1. Xu, Shuyun Pharmacological Test Methodology, 2nd version, P.641, People Health Press, Beijing, 1991. 2. Medicine Secretary for the Ministry of Health, Guidelines on Preclinical Study of New Pharmaceuticals (weaten drugs), P. 42, July, 1993.) • 1. […] Effect on mouse's spontaneity times: (see Table 15).
Effect on the frequency of mice' spontaneous activities: healthy mice, and 50 mice whose frequency of activities was 220-320 within 5 min were selected and randomly divided into five groups, the establishment of dosages were the same as the above. The frequency of activity at o min were measured before drug administration, and then were conducted by intragastric administration, 30, 60, 120 and 180 min later, the frequency of activities within 5 min was measured and recorded respectively, then compared with that of the control group. The measuring time was the period between 9:00 am and 4:00 pm each day. A Six-light channel spontaneous activity instrument was used for one mouse, kept at 24-26° C. of room temperature of; and kept quiet; the test was carried out after the test boxes were covered with black cloth.

physchem = details: phosphate buffer, 25 °C, pH 6.86, aqueous buffer, thermodynamic from solid
[2] = Solubilizing test of puerarin; type: physicochemical; details: 25 °C, pH 6.86, aqueous buffer, thermodynamic from solid
From the text: The standard curve was plotted by concentration C against A (μg/mL) to obtain A=66.608 C+0.0017 R2=0.9999.

red blood cells = assay: Hemolytic test; type: cell-based; details: 5% rabbit red blood cell suspension, 37° C., 30 min
Procedure: Under the present invention, using β-CD, HP-β-CD, SBE7-β-CD, SBE4-β-CD as controls, the hemolytic test results of 11 kinds of compounds are selected, shown in Table 13 and FIG. 9-FIG. 11.
10 ml of fresh rabbit blood were fetched to a clean conical flask, stirred with glass rod for 10 min to remove the fibers, then added with about 20 times of normal saline solution and placed in the centrifuge, 1500 rps/min, for about 3 min, then the supernatant was removed, washed repeated for several times until the supernatant solution becomes clear. The prepared red blood cells were prepared to 5% of suspension by normal saline solution. (Reference: State Drug Administration, Technical requirement of TCM injection study, Technical requirement of TCM new drug study, 1999, 11, 12)

mouse stomach intestine = details: 120 mg/kg and 400 mg/kg; cited from earlier work
[3] = Inclusion constant with prazosin hydrochloride, UV spectrophotometry; type: binding; details: PBS pH 6.86, 250 nm
From the text: PBS of PH6.86 was used to prepare hydrochloride prazosin dilute solution, and this dilute solution was used to prepare HP4-SBE2-β-CD sample solution. […] A line by 1/ΔA against 1/[CD]0 was plotted, and the inclusion constant Ka of prazosin hydrochloride/HP4-SBE2-β-CD can be obtained according to the value of intercept/slope.

[4] = Inclusion constant with puerarin, UV spectrophotometry; type: binding; details: PBS pH 6.86, 250 nm
From the text: PBS of PH6.86 was used to prepare puerarin dilute solution, and this dilute solution was used to prepare HP4-SBE2-β-CD sample solution. […] A straight line by 1/ΔA against 1/[CD]0 was plotted, and the inclusion constant Ka of puerarin/HP4-SBE2-β-CD can be obtained according to the value of intercept/slope.

[5] = Inclusion constant with ibuprofen, UV spectrophotometry; type: binding; details: PBS pH 6.86, 265 nm
mouse [6] = details: 40 mg/kg, 120 mg/kg and 400 mg/kg; cited from earlier work
[7] = 10-100.0 mg/kg; cited from earlier work

Molecule: CC(O)CCO (stereo not drawn) [1,3-Butylene glycol]
LD50 (rat; Oral): 22.8 mg/kg and 23.31 mg/kg | LD50 (rat; subcutaneous injection): 20.06 mg/kg and 16.51 mg/kg

Molecule: OCc1ccccc1 [Benzyl alcohol]
LD50 (rat; Oral): 1230 mg/kg | LD50 (mouse [1]; Oral): 1580 mg/kg

Molecule: O=C(OCc1ccccc1)c1ccccc1 [Benzyl benzoate]
LD50 (mouse [1]; Oral): 1400 mg/kg | LD50 (mouse [1]; cutaneous absorption): 4000 mg/kg

Molecule: CN(C)C=O [DMF]
LD50 (mouse [1]; Oral): 2800 mg/kg | LD50 (mouse [1]; intraperitoneal injection): 1400 mg/kg | LD50 (mouse [1]; intravenous injection): 2000 mg/kg | LDLo (mouse [1]; subcutaneous injection): 1000 mg/kg

Molecule: C[S+](C)[O-] [DMSO]
LD50 (mouse [1]; Oral): 16500 mg/kg | LD50 (mouse [1]; intraperitoneal injection): 3000 mg/kg | LD50 (mouse [1]; intravenous injection): 5750 mg/kg | LD50 (mouse [1]; subcutaneous injection): 14 mg/kg

Molecule: CC(=O)OCC(COC(C)=O)OC(C)=O [Glyceryl triacetate]
LD50 (mouse [1]; subcutaneous injection): 2670 mg/kg and 3250 mg/kg

Molecule: OC[C@@H](O)[C@@H](O)[C@H](O)[C@H](O)CO [Mannitol]
LD50 (rat; Oral): 17 mg/kg | LD50 (mouse [1]; Oral): 22 mg/kg | LD50 (mouse [1]; intraperitoneal injection): 14 mg/kg | LD50 (mouse [1]; intravenous injection): 17 mg/kg

Molecule: CC(O)CO (stereo not drawn) [Propylene glycol]
LD50 (dog; Oral): 22 mg/kg | LD50 (dog; intravenous injection): 26 mg/kg

Molecule: CCC(C)(C)O [amyl alcohol-tert]
LD50 (rat; Oral): 1000 mg/kg | LD50 (mouse [1]; subcutaneous injection): 2100 mg/kg

frequency of spontaneous activities (Kunming mice; 0 min): 302 ± 75 times/5 min | frequency of spontaneous activities (Kunming mice; 30 min): 57 ± 40 times/5 min | frequency of spontaneous activities (Kunming mice; 60 min): 16 ± 20 times/5 min | frequency of spontaneous activities (Kunming mice; 120 min): 22 ± 19 times/5 min | frequency of spontaneous activities (Kunming mice; 180 min): 25 ± 28 times/5 min
Molecule: CN(C)CCCN1c2ccccc2Sc2ccc(Cl)cc21 [chloropromazine]

Molecule: CCOC(=O)C(C)O (stereo not drawn) [ethyl lactate]
LD50 (mouse [1]; intravenous injection): 0.6 (ml) | LD50 (mouse [1]; subcutaneous injection): 2.5 (ml)

solubility at 12 h (physchem): 0.0495 µg/mL
Molecule: COc1cc2nc(N3CCN(C(=O)c4ccco4)CC3)nc(N)c2cc1OC [prazosin hydrochloride]

Molecule: O=c1c(-c2ccc(O)cc2)coc2c([C@@H]3O[C@H](CO)[C@@H](O)[C@H](O)[C@H]3O)c(O)ccc12 [puerarin]
solubility at 12 h [2]: 5800 µg/mL (≈ 13.9 mM)

Molecule: OC[C@H]1O[C@@H]2O[C@H]3[C@H](O)[C@@H](O)[C@@H](O[C@H]4[C@H](O)[C@@H](O)[C@@H](O[C@H]5[C@H](O)[C@@H](O)[C@@H](O[C@H]6[C@H](O)[C@@H](O)[C@@H](O[C@H]7[C@H](O)[C@@H](O)[C@@H](O[C@H]8[C@H](O)[C@@H](O)[C@@H](O[C@H]1[C@H](O)[C@H]2O)O[C@@H]8CO)O[C@@H]7CO)O[C@@H]6CO)O[C@@H]5CO)O[C@@H]4CO)O[C@@H]3CO [β-CD, β-cyclodextrin]
Concentration when the degree of hemolysis of 50 percent (red blood cells): 1140 µg/mL | concentration without hemolysis (red blood cells): 280 µg/mL | LD50 (mouse [1]; intraperitoneal injection): 788 mg/kg

Molecule: PEG400
LD50 (mouse [1]; intraperitoneal injection): 4200 mg/kg | LD50 (mouse [1]; subcutaneous injection): 10 (ml)

Molecule: Sodium deoxycholate
LD50 (mouse [1]; Oral): 815 mg/kg | LD50 (mouse [1]; intraperitoneal injection): 1400 mg/kg | LD50 (mouse [1]; subcutaneous injection): 75 mg/kg

Molecule: hydroxypropyl-β-CD [HP-β-CD]
impellent function of mouse stomach intestine (mouse stomach intestine): slight reduction | inclusion constant Ka [3]: 597 | inclusion constant Ka [4]: 345 | inclusion constant Ka [5]: 221 | effect on mouse fasting blood glucose (mouse [6]): no obvious effect on mouse fasting blood glucose | Concentration when the degree of hemolysis of 50 percent (red blood cells): 12610 µg/mL | concentration without hemolysis (red blood cells): 8160 µg/mL | effect on respiratory amplitude, respiratory frequency, blood pressure and ECG [7]: no obvious effect
